One series can be described thus: physchem. The settings on record: kinetic from dmso stock.
The next series relates to Primary cortical cells. Put plainly: Reduction of neuronal cell death after a glutamate challenge (MTT / LDH release). It is filed as cell-based. The settings on record: for inhibition at 5 µM: 24 h, read-out: reduction in cell death at a 5 μM dose; for dose at maximum efficacy: glutamate challenge, primary cortical cells; for Emax: read-out: maximum efficacy, reduction in cell death. On the technique in general: LDH in the medium is a marker of cell lysis.

As usually defined, the solubility is the dissolved amount per volume that the medium holds.

Converted amounts (≈) assume the structure as drawn.

`C/C(=N\OC(=O)c1ccc(CN)cc1)[C@H]1CC[C@H]2[C@@H]3CCC4=CC(=O)CC[C@]4(C)[C@H]3CC[C@]12C.Cl` [Compound 16, (8S,9S,10R,13S,14S,17S)-17-((E)-1-(4-(aminomethyl)benzoyloxyimino)ethyl)-10,13-dimethyl-6,7,8,9,10,11,12,13,14,15,16,17-dodecahydro-1H-cyclopenta[a]phenanthren-3 (2H)-one]: the solubility at 90 min in the series “physchem” (pH 4, aqueous buffer) is less than 30 µM; in the series “physchem” (pH 7, aqueous buffer), less than 30 µM.

Take `C/C(=N\OC(=O)c1ccc[n+](C)c1)[C@H]1CC[C@H]2[C@@H]3CCC4=CC(=O)CC[C@]4(C)[C@H]3CC[C@]12C.[I-]` [Compound 15, 3-(((E)-1-((8S,9S,10R,13S,14S,17S)-10,13-Dimethyl-3-oxo-2,3,6,7,8,9,10,11,12,13,14,15,16,17-tetradecahydro-1H-cyclopenta[a]phenanthren-17-yl)ethylideneaminooxy)carbonyl)-1-methylpyridinium iodide]: in the series on Primary cortical cells, the inhibition at 5 µM is 0%, the “dose at maximum efficacy” value came to 1 µM and the Emax amounted to 14%. In “physchem” (pH 4, aqueous buffer), this molecule showed a solubility at 90 min of 349 µM. In the series “physchem” (pH 7, aqueous buffer), this molecule displayed a solubility at 90 min of 212 µM.

For the molecule `C/C(=N\OC(=O)c1cccnc1)[C@H]1CC[C@H]2[C@@H]3CCC4=CC(=O)CC[C@]4(C)[C@H]3CC[C@]12C` [Compound 14], in the series with Primary cortical cells, the inhibition at 5 µM was 20%, the “dose at maximum efficacy” value was determined as 5 µM and the Emax is 20%. The same molecule displayed a solubility at 90 min in the series “physchem” (pH 4, aqueous buffer) of less than 35 µM. In the series “physchem” (pH 7, aqueous buffer), the solubility at 90 min is less than 35 µM.

As to `C/C(=N\OC(=O)C1CC[N+](C)(C)CC1)[C@H]1CC[C@H]2[C@@H]3CCC4=CC(=O)CC[C@]4(C)[C@H]3CC[C@]12C.[I-]` [Compound 20, (8S,9S,10R,13S,14S,17S)-10,13-Dimethyl-17-((E)-1-(1,1-dimethylpiperidine-4-carbonyloxyimino)ethyl)-6,7,8,9,10,11,12,13,14,15,16,17-dodecahydro-1H-cyclopenta[a]phenanthren-3(2H)-one iodide], in the series with Primary cortical cells, the inhibition at 5 µM came out at 0%, the “dose at maximum efficacy” value was found to be 5 µM and the Emax was 0%. Besides, the solubility at 90 min in the series “physchem” (pH 4, aqueous buffer) was more than 500 µM. The same molecule displayed a solubility at 90 min in “physchem” (pH 7, aqueous buffer) of more than 500 µM.

Regarding `C/C(=N\OC(=O)c1ccc(CN2CCN(C)CC2)cc1)[C@H]1CC[C@H]2[C@@H]3CCC4=CC(=O)CC[C@]4(C)[C@H]3CC[C@]12C` [Compound 17, (8S,9S,10R,13S,14S,17S)-10,13-dimethyl-17-((E)-1-(4-((4-methylpiperazin-1-yl)methyl)benzoyloxyimino)ethyl)-6,7,8,9,10,11,12,13,14,15,16,17-dodecahydro-1H-cyclopenta[a]phenanthren-3(2H)-one], the solubility at 90 min in “physchem” (pH 4, aqueous buffer) was less than 30 µM; in the series “physchem” (pH 7, aqueous buffer) it was less than 30 µM.

In the case of `C/C(=N\OC(=O)C1CCNCC1)[C@H]1CC[C@H]2[C@@H]3CCC4=CC(=O)CC[C@]4(C)[C@H]3CC[C@]12C.Cl` [Compound 18, (8S,9S,10R,13S,14S,17S)-10,13-Dimethyl-17-((E)-1-(piperidine-4-carbonyloxyimino)ethyl)-6,7,8,9,10,11,12,13,14,15,16,17-dodecahydro-1H-cyclopenta[a]phenanthren-3(2H)-one hydrochloride], in the series with Primary cortical cells, the inhibition at 5 µM amounted to 4%, the “dose at maximum efficacy” value was found to be 10 µM and the Emax turned out to be 24%. Further, in the series “physchem” (pH 4, aqueous buffer), the solubility at 90 min came out at 247 µM. For the same molecule, the solubility at 90 min in “physchem” (pH 7, aqueous buffer) is 247 µM.

As for `C/C(=N\OC(=O)[C@H]1CCCNC1)[C@H]1CC[C@H]2[C@@H]3CCC4=CC(=O)CC[C@]4(C)[C@H]3CC[C@]12C.Cl` [Compound 22, (8S,9S,10R,13S,14S,17S)-10,13-Dimethyl-17-((E)-1-((S)-piperidine-3-carbonyloxyimino)ethyl)-6,7,8,9,10,11,12,13,14,15,16,17-dodecahydro-1H-cyclopenta[a]phenanthren-3(2H)-one hydrochloride], the solubility at 90 min in the series “physchem” (pH 4, aqueous buffer) was determined as 314 µM; in the series “physchem” (pH 7, aqueous buffer), 314 µM.

Regarding `C/C(=N\OC(=O)C1CCN(C)CC1)[C@H]1CC[C@H]2[C@@H]3CCC4=CC(=O)CC[C@]4(C)[C@H]3CC[C@]12C` [Compound 19, (8S,9S,10R,13S,14S,17S)-10,13-Dimethyl-17-((E)-1-(1-methylpiperidine-4-carbonyloxyimino)ethyl)-6,7,8,9,10,11,12,13,14,15,16,17-dodecahydro-1H-cyclopenta[a]phenanthren-3(2H)-one], the solubility at 90 min was more than 660 µM in the series “physchem” (pH 4, aqueous buffer) and 108 µM (≈ 49.1 µg/mL) in the series “physchem” (pH 7, aqueous buffer).

Regarding `C/C(=N\OC(=O)[C@@H]1CCCN1)[C@H]1CC[C@H]2[C@@H]3CCC4=CC(=O)CC[C@]4(C)[C@H]3CC[C@]12C.Cl` [Compound 8, (8S,9S,10R,13S,14S,17S)-10,13-Dimethyl-17-((E)-1-((S)-pyrrolidine-2-carbonyloxyimino)ethyl)-6,7,8,9,10,11,12,13,14,15,16,17-dodecahydro-1H-cyclopenta[a]phenanthren-3(2H)-one Hydrochloride], in the series on Primary cortical cells, the inhibition at 5 µM turned out to be 21%, the “dose at maximum efficacy” value is 10 µM and the Emax was 33%. This molecule also returned a solubility at 90 min in the series “physchem” (pH 4, aqueous buffer) of 395 µM. The molecule also had a solubility at 90 min in the series “physchem” (pH 7, aqueous buffer) of 34 µM.

With `C/C(=N\OC(=O)[C@@H]1CCCNC1)[C@H]1CC[C@H]2[C@@H]3CCC4=CC(=O)CC[C@]4(C)[C@H]3CC[C@]12C.Cl` [Compound 21, (8S,9S,10R,13S,14S,17S)-10,13-dimethyl-17-((E)-1-((R)-piperidine-3-carbonyloxyimino)ethyl)-6,7,8,9,10,11,12,13,14,15,16,17-dodecahydro-1H-cyclopenta[a]phenanthren-3 (2H)-one hydrochloride], the solubility at 90 min was more than 500 µM in the series “physchem” (pH 4, aqueous buffer) and 428 µM in the series “physchem” (pH 7, aqueous buffer).

`CC(=O)O/N=C(\C)[C@H]1CC[C@H]2[C@@H]3CCC4=CC(=O)CC[C@]4(C)[C@H]3CC[C@]12C` [Compound 6, (8 S,9S,10R,13S,14S,17S)-17-((E)-1-(acetoxyimino)ethyl)-10,13-dimethyl-6,7,8,9,10,11,12,13,14,15,16,17-dodecahydro-1H-cyclopenta[a]phenanthren-3(2H)-one]: the solubility at 90 min in the series “physchem” (pH 4, aqueous buffer) was 180 µM (≈ 66.9 µg/mL); in the series “physchem” (pH 7, aqueous buffer), 100 µM (≈ 37.2 µg/mL).

With `C/C(=N\OC(=O)C[N+](C)(C)C)[C@H]1CC[C@H]2[C@@H]3CCC4=CC(=O)CC[C@]4(C)[C@H]3CC[C@]12C.[I-]` [Compound 11, (8S,9S,10R,13S,14S,17S)-17-((E)-1-(2-(triimethylamino)acetoxyimino)ethyl)-10,13-dimethyl-6,7,8,9,10,11,12,13,14,15,16,17-dodecahydro-1H-cyclopenta[a]phenanthren-3(2H)-one Iodide], the solubility at 90 min in the series “physchem” (pH 4, aqueous buffer) is more than 540 µM; in “physchem” (pH 7, aqueous buffer), 45 µM.

For the molecule `C/C(=N\OC(=O)CN1CCOCC1)[C@H]1CC[C@H]2[C@@H]3CCC4=CC(=O)CC[C@]4(C)[C@H]3CC[C@]12C` [Compound 12, (8S,9S,10R,13S,14S,17S)-10,13-Dimethyl-17-((E)-1-(2-morpholinoacetoxyimino)ethyl)-6,7,8,9,10,11,12,13,14,15,16,17-dodecahydro-1H-cyclopenta[a]phenanthren-3(2H)-one], the solubility at 90 min was 215 µM (≈ 98.2 µg/mL) in the series “physchem” (pH 4, aqueous buffer) and 215 µM (≈ 98.2 µg/mL) in the series “physchem” (pH 7, aqueous buffer).

The values above are taken from patent publication US11274118B2 (priority 2012, dated 2022).
